Test results from publication PMC7748245, “Identification and Optimization of a Series of 8-Hydroxy Naphthyridines with Potent In Vitro Antileishmanial Activity: Initial SAR and Assessment of In Vivo Activity” (Journal of Medicinal Chemistry, 2020).
≈ marks a conversion by molar mass, not a printed value. Where two headings read alike, the source gives them in different places.

Columns and labels:
[1] = test system: L. donovani amastigotes; test: Intramacrophage L. donovani assay (Ld InMac); assay type: cell-based, Leishmania donovani; conditions: for IC50 / EC50: Leishmania donovani; for IC50: read-out: LdInMac pIC50 (converted); for EC50: THP-1, 96 h, read-out: Ld InMac (pEC50) (converted); for EC50 / Ld InMac (pEC50): L. donovani amastigotes in THP-1 cells, 96 h compound exposure; for loss in potency compared to 1: Ld InMac
Description: (§1) This assay was conducted as previously described,[8] except for compound exposure time, which was 96 h instead of 72 h.

[2] = Mouse liver microsomal intrinsic clearance; assay type: in vitro ADME; conditions: for Cli (mouse liver microsomal intrinsic clearance): mouse liver microsomes; for Cli (mouse, ml/min/g): supplement sheet
Description: (§2) These assays were conducted as previously described.[23]

[3] = Chrom Log D pH7.4; assay type: physicochemical; conditions: for ChromLogDpH7.4: pH 7.4; for ChromLogD: supplement sheet
Description: This assay was conducted as previously described.[11]

[4] = Kinetic aqueous solubility; assay type: physicochemical; conditions: kinetic; read-out: Aq Solubility (kinetic aqueous solubility)
Description: as §2

[5] = test system: THP-1 cells; test: THP-1 host cell toxicity readout of the intramacrophage assay; assay type: cell-based, human; conditions: for THP-1 (pEC50): human THP-1 host cells; for IC50: Homo sapiens
Description: as §1

[6] = THP-1, supplement sheet, read-out: THP1 pIC50 (converted)

For `CNc1nc(-c2nc(C)n[nH]2)c(O)c2ncccc12` [Compound 8, 7-(3-Methyl-1H-1,2,4-triazol-5-yl)-5-(methylamino)-1,6-naphthyridin-8-ol], the “LdInMac pIC50” value ([1]; supplement sheet) was less than 4.3, the “Cli (mouse liver microsomal intrinsic clearance)” value [2] was 3.1 mL/min/g and the “Cli (mouse, ml/min/g)” value [2] was 3.1 mL/min/g. For the same molecule, the ChromLogDpH7.4 [3] was -0.2, the ChromLogD [3] was -0.2 and the solubility kinetic [4] was greater than 250 µM. The “THP-1 (pEC50)” value [5] was less than 4.3 and the “THP1 pIC50” value ([5]; supplement sheet) was less than 4.3.
With “(R)-N-(1-(4-Fluorophenyl)ethyl)-1-methyl-4-oxo-1,4-dihydro-1,5-naphthyridine-3-carboxamide [Compound 22]” the “LdInMac pIC50” value ([1]; supplement sheet) was less than 4.3, the “Cli (mouse liver microsomal intrinsic clearance)” value [2] was 0.7 mL/min/g and the “Cli (mouse, ml/min/g)” value [2] was 0.7 mL/min/g. The solubility kinetic [4] was greater than 250 µM, the “THP-1 (pEC50)” value [5] was less than 4.3 and the “THP1 pIC50” value ([5]; supplement sheet) was less than 4.3.
With `Cc1n[nH]c(-c2nc(NCc3ccc(Cl)cc3)c3cccnc3c2O)n1` [Compound 10, 5-((4-Chlorobenzyl)amino)-7-(3-methyl-1H-1,2,4-triazol-5-yl)-1,6-naphthyridin-8-ol] the “LdInMac pIC50” value ([1]; supplement sheet) was 5.8, the “Cli (mouse liver microsomal intrinsic clearance)” value [2] was 3.4 mL/min/g and the “Cli (mouse, ml/min/g)” value [2] was 3.4 mL/min/g. It also gave a ChromLogDpH7.4 [3] of 4.4, a ChromLogD [3] of 4.4 and a solubility kinetic [4] of 219 µM (≈ 80.3 µg/mL). The “THP-1 (pEC50)” value [5] was less than 4.3 and the “THP1 pIC50” value ([5]; supplement sheet) was less than 4.3.
In the case of `O=C(NCc1ccc(F)cc1)c1nc(N2CCCCS2(=O)=O)c2cccnc2c1O` [Compound 30, N-(4-Fluorobenzyl)-5-(1,1-dioxido-1,2-thiazinan-2-yl)-8-hydroxy-1,6-naphthyridine-7-carboxamide, reference compound], the “LdInMac pIC50” value ([1]; supplement sheet) was less than 4.3, the “Cli (mouse liver microsomal intrinsic clearance)” value [2] was 2.0 mL/min/g and the “Cli (mouse, ml/min/g)” value [2] was 2 mL/min/g. The solubility kinetic [4] was greater than 250 µM, the “THP-1 (pEC50)” value [5] was 4.5 and the “THP1 pIC50” value ([5]; supplement sheet) was 4.5.
For `COc1ccccc1-c1nc(-c2nnc(C)o2)c(O)c2ncccc12` [Compound 19, 5-(2-Methoxyphenyl)-7-(5-methyl-1,3,4-oxadiazol-2-yl)-1,6-naphthyridin-8-ol], the IC50 ([1]; supplement sheet) was greater than 50.1 µM, the “Cli (mouse liver microsomal intrinsic clearance)” value [2] was less than 0.5 mL/min/g and the “Cli (mouse, ml/min/g)” value [2] was less than 0.5 mL/min/g. It also gave an IC50 [5, 6] greater than 50.1 µM.
In the case of `Cc1n[nH]c(-c2cc3ncccc3c(-c3ccccc3)n2)n1` [Compound 17], the IC50 ([1]; supplement sheet) was greater than 50.1 µM and the IC50 [5, 6] was greater than 50.1 µM.
For “2-(8-Hydroxy-7-(3-methyl-1H-1,2,4-triazol-5-yl)-1,6-naphthyridin-5-yl)-1,2-thiazinane 1,1-dioxide [Compound 13]”, the “LdInMac pIC50” value ([1]; supplement sheet) was less than 4.3, the “Cli (mouse liver microsomal intrinsic clearance)” value [2] was 0.6 mL/min/g and the “Cli (mouse, ml/min/g)” value [2] was 0.6 mL/min/g. The ChromLogDpH7.4 [3] was 1.5, the ChromLogD [3] was 1.5 and the solubility kinetic [4] was 250 µM. For the same molecule, the “THP-1 (pEC50)” value [5] was less than 4.3 and the “THP1 pIC50” value ([5]; supplement sheet) was less than 4.3.
For `Oc1c(-c2nnc(Cc3ccc(Cl)cc3)[nH]2)ncc2cccnc12` [Compound 1], the EC50 [1] was 0.316 µM, the IC50 ([1]; supplement sheet) was 0.316 µM and the “selectivity over the human THP-1 cell line” value ([1]; parasite vs THP-1 pEC50) was roughly 100 fold. The IC50 [5, 6] was 31.6 µM.
In the case of `Oc1c(-c2nc(CN3CCOCC3)n[nH]2)ncc2cccnc12` [Compound 5, 7-(3-(Morpholinomethyl)-1H-1,2,4-triazol-5-yl)-1,6-naphthyridin-8-ol], the EC50 [1] was 31.6 µM, the IC50 ([1]; supplement sheet) was 31.6 µM and the IC50 [5, 6] was greater than 50.1 µM.
With `COc1ccc(CNC(=O)c2nn(C)c3cccnc3c2=O)cc1` [Compound 23, N-(4-Methoxybenzyl)-1-methyl-4-oxo-1,4-dihydropyrido[3,2-c]pyridazine-3-carboxamide] the IC50 ([1]; supplement sheet) was greater than 50.1 µM and the IC50 [5, 6] was greater than 50.1 µM.
In the case of `Cc1n[nH]c(-c2ncc3cccnc3c2O)n1` [Compound 4, 7-(3-Methyl-1H-1,2,4-triazol-5-yl)-1,6-naphthyridin-8-ol], the IC50 ([1]; supplement sheet) was greater than 50.1 µM and the IC50 [5, 6] was greater than 50.1 µM.
In the case of `Cc1n[nH]c(-c2nc(N3CCCC3=O)c3cccnc3c2O)n1` [Compound 12, 1-(8-Hydroxy-7-(3-methyl-1H-1,2,4-triazol-5-yl)-1,6-naphthyridin-5-yl)pyrrolidin-2-one], the “LdInMac pIC50” value ([1]; supplement sheet) was less than 4.3, the “Cli (mouse liver microsomal intrinsic clearance)” value [2] was less than 0.5 mL/min/g and the “Cli (mouse, ml/min/g)” value [2] was less than 0.5 mL/min/g. For the same molecule, the solubility kinetic [4] was 109 µM (≈ 33.8 µg/mL), the “THP-1 (pEC50)” value [5] was less than 4.3 and the “THP1 pIC50” value ([5]; supplement sheet) was less than 4.3.
With `Oc1c(-c2nc(C(O)c3ccccc3)n[nH]2)ncc2cccnc12` (stereo not drawn) [Compound 3, 7-(3-(Hydroxy(phenyl)methyl)-1H-1,2,4-triazol-5-yl)-1,6-naphthyridin-8-ol] the “loss in potency compared to 1” value [1] was roughly 10 fold, the IC50 ([1]; supplement sheet) was 5.01 µM and the IC50 [5, 6] was greater than 50.1 µM.
In the case of `Oc1c(-c2nnc(Cc3ccc(F)cc3)[nH]2)ncc2cccnc12` [Compound 2], the “loss in potency compared to 1” value [1] was roughly 10 fold, the IC50 ([1]; supplement sheet) was 2.51 µM and the IC50 [5, 6] was 39.8 µM.
Work on `Cc1nnc(C(=O)NC(C)(C)c2nc(C(=O)NCc3ccc(F)cc3)c(O)c(=O)n2C)o1` [Compound 24, Raltegravir, reference compound] yielded an IC50 [1] greater than 50.1 µM and an IC50 ([5]; THP-1, read-out: THP1 pIC50 (converted)) greater than 50.1 µM.
With `COc1ccc(CNC(=O)c2ncc3cccnc3c2O)cc1` [Compound 27, 8-Hydroxy-N-(4-methoxybenzyl)-1,6-naphthyridine-7-carboxamide] the “Ld InMac (pEC50)” value [1] was 6.3, the EC50 [1] was less than 1 µM and the IC50 ([1]; supplement sheet) was 0.501 µM. It also gave an IC50 [5, 6] greater than 50.1 µM.
In the case of `COc1ccccc1-c1nc(-c2nc(C)n[nH]2)c(OC)c2ncccc12` [Compound 18], the IC50 ([1]; supplement sheet) was 2.51 µM and the IC50 [5, 6] was greater than 50.1 µM.
For “N-(Cyclopropylmethyl)-8-hydroxy-1,6-naphthyridine-7-carboxamide [Compound 29]”, the “Ld InMac (pEC50)” value [1] was 5.9, the “LdInMac pIC50” value ([1]; supplement sheet) was 5.9 and the “Cli (mouse liver microsomal intrinsic clearance)” value [2] was 13 mL/min/g. The “Cli (mouse, ml/min/g)” value [2] was 13 mL/min/g, the ChromLogDpH7.4 [3] was 3.3 and the ChromLogD [3] was 3.3. The “THP-1 (pEC50)” value [5] was less than 4.3 and the “THP1 pIC50” value ([5]; supplement sheet) was less than 4.3.
In the case of `O=C1CCCN1Cc1n[nH]c(-c2ncc3cccnc3c2O)n1` [Compound 6, 1-((5-(8-Hydroxy-1,6-naphthyridin-7-yl)-1H-1,2,4-triazol-3-yl)methyl)pyrrolidin-2-one], the IC50 ([1]; supplement sheet) was greater than 50.1 µM, the “Cli (mouse liver microsomal intrinsic clearance)” value [2] was less than 0.5 mL/min/g and the “Cli (mouse, ml/min/g)” value [2] was less than 0.5 mL/min/g. It also gave an IC50 [5, 6] greater than 50.1 µM.
For `O=C(NCc1ccc(Cl)cc1)c1ccc2cccnc2c1O` [Compound 20], the IC50 ([1]; supplement sheet) was 15.8 µM, the IC50 [5, 6] was 6.31 µM and the “THP-1 (pEC50)” value [5] was “toxic to the host THP-1 cells”.
Molecule `O=C(NCc1ccc(Cl)cc1)c1ncc2ccccc2c1O` [Compound 21] has an IC50 ([1]; supplement sheet) greater than 50.1 µM and an IC50 [5, 6] greater than 50.1 µM.
In the case of “N-(4-Chlorobenzyl)-8-hydroxy-5-morpholino-1,6-naphthyridine-7-carboxamide [Compound 32]”, the “Ld InMac (pEC50)” value [1] was less than 4.3, the “LdInMac pIC50” value ([1]; supplement sheet) was less than 4.3 and the “Cli (mouse liver microsomal intrinsic clearance)” value [2] was 24 mL/min/g. For the same molecule, the “Cli (mouse, ml/min/g)” value [2] was 24 mL/min/g, the solubility kinetic [4] was 219 µM and the “THP-1 (pEC50)” value [5] was less than 4.3. The “THP1 pIC50” value ([5]; supplement sheet) was less than 4.3.
For `Cc1n[nH]c(-c2nc(-c3ccccc3)c3cccnc3c2O)n1` [Compound 14, 7-(3-Methyl-1H-1,2,4-triazol-5-yl)-5-phenyl-1,6-naphthyridin-8-ol], the “Ld InMac (pEC50)” value [1] was 5.9, the “LdInMac pIC50” value ([1]; supplement sheet) was 5.9 and the “Cli (mouse liver microsomal intrinsic clearance)” value [2] was 9.4 mL/min/g. For the same molecule, the “Cli (mouse, ml/min/g)” value [2] was 9.4 mL/min/g, the solubility kinetic [4] was 160 µM (≈ 48.5 µg/mL) and the “THP-1 (pEC50)” value [5] was less than 4.3. The “THP1 pIC50” value ([5]; supplement sheet) was less than 4.3.
In the case of `O=C(NCc1ccc(Cl)cc1)c1ncc2cccnc2c1O` [Compound 7, N-(4-Chlorobenzyl)-8-hydroxy-1,6-naphthyridine-7-carboxamide], the EC50 [1] was 0.501 µM, the IC50 ([1]; supplement sheet) was 0.501 µM and the IC50 [5, 6] was greater than 50.1 µM.
In the case of “N-(Cyclopropylmethyl)-8-hydroxy-5-(2-methoxyphenyl)-1,6-naphthyridine-7-carboxamide [Compound 33]”, the “Ld InMac (pEC50)” value [1] was 5.7, the “LdInMac pIC50” value ([1]; supplement sheet) was 5.7 and the “Cli (mouse liver microsomal intrinsic clearance)” value [2] was 8 mL/min/g. For the same molecule, the “Cli (mouse, ml/min/g)” value [2] was 8 mL/min/g, the solubility kinetic [4] was greater than 250 µM and the “THP-1 (pEC50)” value [5] was less than 4.3. The “THP1 pIC50” value ([5]; supplement sheet) was less than 4.3.
